Experimental data published in ChEMBL document CHEMBL3813616, “Discovery of novel 7-azaindoles as PDK1 inhibitors” (Bioorg Med Chem Lett, 2016).
Blank lines part the entries; values can stand above or below the compound they belong to.

Assays:
[1] = target: T1, 3-phosphoinositide-dependent protein kinase 1 (Homo sapiens) (UniProt O15530); experiment: Selectivity ratio of IC50 for PDK1-mediated AKT phosphorylation at Thr308 in human PC3 cells to IC50 for human His6-tagged PDK1; format: cell-based; details: PC-3
T1 sequence (whole entry): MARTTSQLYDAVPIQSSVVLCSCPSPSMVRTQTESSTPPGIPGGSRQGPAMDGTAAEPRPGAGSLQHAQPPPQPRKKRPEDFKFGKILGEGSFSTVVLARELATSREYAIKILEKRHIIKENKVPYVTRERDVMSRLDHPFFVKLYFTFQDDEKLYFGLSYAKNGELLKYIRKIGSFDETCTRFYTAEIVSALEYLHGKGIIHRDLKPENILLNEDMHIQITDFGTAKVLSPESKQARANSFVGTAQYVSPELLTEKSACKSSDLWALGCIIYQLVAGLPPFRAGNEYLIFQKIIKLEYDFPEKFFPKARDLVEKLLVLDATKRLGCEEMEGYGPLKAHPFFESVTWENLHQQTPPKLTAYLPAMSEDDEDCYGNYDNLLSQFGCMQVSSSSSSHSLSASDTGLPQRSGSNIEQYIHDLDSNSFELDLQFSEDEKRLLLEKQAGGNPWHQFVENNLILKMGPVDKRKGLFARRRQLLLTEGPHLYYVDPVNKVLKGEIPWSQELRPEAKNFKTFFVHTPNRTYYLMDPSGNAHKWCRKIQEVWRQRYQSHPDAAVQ

[2] = target: Phosphatidylinositol 4,5-bisphosphate 3-kinase catalytic subunit delta isoform (Homo sapiens) (UniProt O00329); experiment: Inhibition of PI3K delta (unknown origin) at 10 uM
[3] = target: Serine/threonine-protein kinase TAO1 (Homo sapiens) (UniProt Q7L7X3); experiment: Inhibition of human TAO1 (1 to 356 residues) assessed as enzyme activity at 1 uM using 33P ATP by radioactive filter binding assay; set-up: scale not given: the % may be the effect or the level left
[4] = target: Receptor-interacting serine/threonine-protein kinase 2 (Homo sapiens) (UniProt O43353); experiment: Inhibition of human RIPK2 (2 to 311 residues) assessed as enzyme activity at 1 uM using 33P ATP by radioactive filter binding assay; set-up: scale not given: the % may be the effect or the level left
[5] = target: High affinity nerve growth factor receptor (Homo sapiens) (UniProt P04629); experiment: Inhibition of human TrkA (441 to 760 residues) assessed as enzyme activity at 1 uM using 33P ATP by radioactive filter binding assay; set-up: scale not given: the % may be the effect or the level left
[6] = target: Dual specificity mitogen-activated protein kinase kinase 6 (Homo sapiens) (UniProt P52564); experiment: Inhibition of human MKK6 (2 to 334 residues) assessed as enzyme activity at 1 uM using 33P ATP by radioactive filter binding assay; set-up: scale not given: the % may be the effect or the level left
[7] = target: Tyrosine-protein kinase ABL1 (Homo sapiens) (UniProt P00519); experiment: Inhibition of human ABL (118 to 535 residues) assessed as enzyme activity at 1 uM using 33P ATP by radioactive filter binding assay; set-up: scale not given: the % may be the effect or the level left
[8] = target: Mitogen-activated protein kinase kinase kinase 9 (Homo sapiens) (UniProt P80192); experiment: Inhibition of human MLK1 (132 to 413 residues) assessed as enzyme activity at 1 uM using 33P ATP by radioactive filter binding assay; set-up: scale not given: the % may be the effect or the level left
[9] = target: Death-associated protein kinase 1 (Homo sapiens) (UniProt P53355); experiment: Inhibition of human DAPK1 (1 to 363 residues) assessed as enzyme activity at 1 uM using 33P ATP by radioactive filter binding assay; set-up: scale not given: the % may be the effect or the level left
[10] = target: Protein kinase C gamma type (Homo sapiens) (UniProt P05129); experiment: Inhibition of human PKCgamma (1 to 697 residues) assessed as enzyme activity at 1 uM using 33P ATP by radioactive filter binding assay; set-up: scale not given: the % may be the effect or the level left
[11] = target: Mitogen-activated protein kinase 9 (Homo sapiens) (UniProt P45984); experiment: Inhibition of human JNK2 (1 to 424 residues) assessed as enzyme activity at 1 uM using 33P ATP by radioactive filter binding assay; set-up: scale not given: the % may be the effect or the level left
Mitogen-activated protein kinase 9 (Homo sapiens), sequence (P45984 whole entry, looked up, the tested form may be a part): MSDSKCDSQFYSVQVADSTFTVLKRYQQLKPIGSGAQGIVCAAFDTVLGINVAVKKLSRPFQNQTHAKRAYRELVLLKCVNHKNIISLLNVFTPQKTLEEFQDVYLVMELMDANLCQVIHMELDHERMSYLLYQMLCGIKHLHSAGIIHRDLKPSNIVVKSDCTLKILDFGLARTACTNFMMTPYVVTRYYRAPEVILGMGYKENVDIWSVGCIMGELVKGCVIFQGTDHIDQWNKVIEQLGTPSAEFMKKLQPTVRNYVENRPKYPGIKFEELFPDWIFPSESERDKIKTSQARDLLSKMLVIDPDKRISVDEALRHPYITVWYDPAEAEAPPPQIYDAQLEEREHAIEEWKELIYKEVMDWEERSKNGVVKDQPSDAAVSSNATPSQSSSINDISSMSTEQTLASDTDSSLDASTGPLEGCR

[12] = target: Mitogen-activated protein kinase kinase kinase 11 (Homo sapiens) (UniProt Q16584); experiment: Inhibition of human MLK3 (96 to 386 residues) assessed as enzyme activity at 1 uM using 33P ATP by radioactive filter binding assay; set-up: scale not given: the % may be the effect or the level left
Mitogen-activated protein kinase kinase kinase 11 (Homo sapiens), sequence (Q16584 whole entry, looked up, the tested form may be a part): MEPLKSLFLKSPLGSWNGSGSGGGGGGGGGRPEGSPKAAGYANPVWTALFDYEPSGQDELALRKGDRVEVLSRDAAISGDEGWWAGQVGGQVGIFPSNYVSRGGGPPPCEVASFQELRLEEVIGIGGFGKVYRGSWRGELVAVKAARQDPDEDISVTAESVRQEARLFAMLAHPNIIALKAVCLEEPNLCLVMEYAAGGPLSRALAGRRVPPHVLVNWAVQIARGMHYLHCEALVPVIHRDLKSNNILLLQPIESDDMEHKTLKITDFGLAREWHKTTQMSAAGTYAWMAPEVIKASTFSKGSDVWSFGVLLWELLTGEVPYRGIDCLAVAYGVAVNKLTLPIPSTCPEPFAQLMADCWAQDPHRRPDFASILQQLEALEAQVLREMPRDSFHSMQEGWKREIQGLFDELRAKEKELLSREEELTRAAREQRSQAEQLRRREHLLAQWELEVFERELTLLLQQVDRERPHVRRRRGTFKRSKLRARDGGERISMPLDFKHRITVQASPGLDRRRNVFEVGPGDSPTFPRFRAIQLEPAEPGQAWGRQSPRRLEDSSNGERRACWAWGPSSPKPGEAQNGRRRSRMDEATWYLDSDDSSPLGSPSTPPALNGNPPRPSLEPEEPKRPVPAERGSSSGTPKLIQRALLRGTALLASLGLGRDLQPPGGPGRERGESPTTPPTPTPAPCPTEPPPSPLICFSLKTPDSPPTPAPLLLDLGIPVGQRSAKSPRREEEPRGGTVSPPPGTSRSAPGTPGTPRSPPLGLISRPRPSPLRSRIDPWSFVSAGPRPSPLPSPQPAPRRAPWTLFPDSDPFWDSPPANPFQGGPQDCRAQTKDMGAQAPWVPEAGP

[13] = target: Mitogen-activated protein kinase kinase kinase kinase 2 (Homo sapiens) (UniProt Q12851); experiment: Inhibition of human GCK (2 to 812 residues) assessed as enzyme activity at 1 uM using 33P ATP by radioactive filter binding assay; set-up: scale not given: the % may be the effect or the level left
Mitogen-activated protein kinase kinase kinase kinase 2 (Homo sapiens), sequence (Q12851 whole entry, the tested form may be a part): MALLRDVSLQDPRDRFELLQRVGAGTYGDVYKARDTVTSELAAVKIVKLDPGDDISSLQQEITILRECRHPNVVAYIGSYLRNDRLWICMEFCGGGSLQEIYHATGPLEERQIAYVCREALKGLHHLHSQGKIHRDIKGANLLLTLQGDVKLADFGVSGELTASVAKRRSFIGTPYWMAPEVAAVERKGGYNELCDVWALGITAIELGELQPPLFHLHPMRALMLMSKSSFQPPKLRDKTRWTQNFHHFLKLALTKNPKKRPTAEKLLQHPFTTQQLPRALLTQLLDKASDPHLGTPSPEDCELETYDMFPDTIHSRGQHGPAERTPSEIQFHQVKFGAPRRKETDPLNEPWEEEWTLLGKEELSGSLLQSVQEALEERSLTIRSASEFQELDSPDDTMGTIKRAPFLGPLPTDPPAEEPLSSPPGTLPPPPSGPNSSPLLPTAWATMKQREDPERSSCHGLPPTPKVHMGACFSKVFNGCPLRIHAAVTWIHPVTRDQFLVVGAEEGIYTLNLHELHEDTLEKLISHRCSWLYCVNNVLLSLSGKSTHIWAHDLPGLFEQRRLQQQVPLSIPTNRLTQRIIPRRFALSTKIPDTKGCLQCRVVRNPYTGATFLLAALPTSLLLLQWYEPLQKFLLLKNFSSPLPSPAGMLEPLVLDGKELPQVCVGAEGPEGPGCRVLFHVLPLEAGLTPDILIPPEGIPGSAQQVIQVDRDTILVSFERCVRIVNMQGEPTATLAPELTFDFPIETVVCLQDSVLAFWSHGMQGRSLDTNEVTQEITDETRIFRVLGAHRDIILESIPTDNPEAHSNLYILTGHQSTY

[14] = target: Serine/threonine-protein kinase STK11 (Homo sapiens) (UniProt Q15831); experiment: Inhibition of human LKB1 (1 to 433 residues) assessed as enzyme activity at 1 uM using 33P ATP by radioactive filter binding assay; set-up: scale not given: the % may be the effect or the level left
Serine/threonine-protein kinase STK11 (Homo sapiens), sequence (Q15831 whole entry, the tested form may be a part): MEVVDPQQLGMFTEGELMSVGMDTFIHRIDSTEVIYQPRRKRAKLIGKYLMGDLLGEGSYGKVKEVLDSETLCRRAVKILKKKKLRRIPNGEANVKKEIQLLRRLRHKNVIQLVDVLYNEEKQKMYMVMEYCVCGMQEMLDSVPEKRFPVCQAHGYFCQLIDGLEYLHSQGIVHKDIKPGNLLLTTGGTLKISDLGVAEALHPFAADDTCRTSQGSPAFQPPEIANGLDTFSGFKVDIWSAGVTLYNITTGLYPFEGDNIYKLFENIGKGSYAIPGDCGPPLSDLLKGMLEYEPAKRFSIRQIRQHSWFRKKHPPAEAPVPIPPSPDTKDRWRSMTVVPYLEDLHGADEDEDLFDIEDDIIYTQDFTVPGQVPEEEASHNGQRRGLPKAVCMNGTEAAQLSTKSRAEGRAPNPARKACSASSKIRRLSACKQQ

[15] = target: Ephrin type-A receptor 4 (Homo sapiens) (UniProt P54764); experiment: Inhibition of human EPHA4 (570 to 986 residues) assessed as enzyme activity at 1 uM using 33P ATP by radioactive filter binding assay; set-up: scale not given: the % may be the effect or the level left
Ephrin type-A receptor 4 (Homo sapiens), sequence (P54764 whole entry, the tested form may be a part): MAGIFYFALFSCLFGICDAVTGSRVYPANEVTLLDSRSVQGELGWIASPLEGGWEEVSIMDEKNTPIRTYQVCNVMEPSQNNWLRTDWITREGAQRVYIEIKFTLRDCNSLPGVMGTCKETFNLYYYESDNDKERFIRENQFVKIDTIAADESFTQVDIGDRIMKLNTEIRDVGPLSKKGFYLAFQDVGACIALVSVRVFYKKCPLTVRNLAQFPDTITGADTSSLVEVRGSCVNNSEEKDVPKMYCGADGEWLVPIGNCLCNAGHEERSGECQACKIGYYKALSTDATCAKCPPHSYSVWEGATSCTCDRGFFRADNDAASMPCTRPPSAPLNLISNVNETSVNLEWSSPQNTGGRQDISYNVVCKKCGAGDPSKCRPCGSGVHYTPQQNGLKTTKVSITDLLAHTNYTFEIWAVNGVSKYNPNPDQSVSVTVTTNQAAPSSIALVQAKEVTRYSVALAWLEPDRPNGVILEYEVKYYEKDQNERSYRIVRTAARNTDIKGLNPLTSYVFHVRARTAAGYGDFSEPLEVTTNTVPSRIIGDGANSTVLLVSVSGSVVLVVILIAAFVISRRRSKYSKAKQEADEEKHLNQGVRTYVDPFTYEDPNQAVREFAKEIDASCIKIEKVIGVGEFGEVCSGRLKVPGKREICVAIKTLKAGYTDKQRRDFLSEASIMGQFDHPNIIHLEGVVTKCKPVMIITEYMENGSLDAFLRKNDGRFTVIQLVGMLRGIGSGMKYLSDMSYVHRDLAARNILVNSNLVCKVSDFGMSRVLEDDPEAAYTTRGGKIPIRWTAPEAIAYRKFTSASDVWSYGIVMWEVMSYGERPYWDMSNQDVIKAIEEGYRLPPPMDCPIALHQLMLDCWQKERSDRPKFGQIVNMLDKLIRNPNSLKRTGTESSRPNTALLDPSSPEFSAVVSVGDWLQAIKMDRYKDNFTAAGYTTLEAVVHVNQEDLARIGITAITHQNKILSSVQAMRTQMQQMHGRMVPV

[16] = target: Mitogen-activated protein kinase kinase kinase 5 (Homo sapiens) (UniProt Q99683); experiment: Inhibition of human ASK1 (670 to 950 residues) assessed as enzyme activity at 1 uM using 33P ATP by radioactive filter binding assay; set-up: scale not given: the % may be the effect or the level left
[17] = target: MAP/microtubule affinity-regulating kinase 4 (Homo sapiens) (UniProt Q96L34); experiment: Inhibition of human MARK4 (2 to 752 residues) assessed as enzyme activity at 1 uM using 33P ATP by radioactive filter binding assay; set-up: scale not given: the % may be the effect or the level left
[18] = target: T2, 3-phosphoinositide-dependent protein kinase 1 (Homo sapiens, UniProt O15530); experiment: Inhibition of human PDK1
T2 sequence (O15530 whole entry): T1 sequence (whole entry)

[19] = target: Dual specificity protein kinase TTK (Homo sapiens) (UniProt P33981); experiment: Inhibition of human TTK (1 to 857 residues) assessed as enzyme activity at 1 uM using 33P ATP by radioactive filter binding assay; set-up: scale not given: the % may be the effect or the level left
Dual specificity protein kinase TTK (Homo sapiens), sequence (P33981 whole entry, the tested form may be a part): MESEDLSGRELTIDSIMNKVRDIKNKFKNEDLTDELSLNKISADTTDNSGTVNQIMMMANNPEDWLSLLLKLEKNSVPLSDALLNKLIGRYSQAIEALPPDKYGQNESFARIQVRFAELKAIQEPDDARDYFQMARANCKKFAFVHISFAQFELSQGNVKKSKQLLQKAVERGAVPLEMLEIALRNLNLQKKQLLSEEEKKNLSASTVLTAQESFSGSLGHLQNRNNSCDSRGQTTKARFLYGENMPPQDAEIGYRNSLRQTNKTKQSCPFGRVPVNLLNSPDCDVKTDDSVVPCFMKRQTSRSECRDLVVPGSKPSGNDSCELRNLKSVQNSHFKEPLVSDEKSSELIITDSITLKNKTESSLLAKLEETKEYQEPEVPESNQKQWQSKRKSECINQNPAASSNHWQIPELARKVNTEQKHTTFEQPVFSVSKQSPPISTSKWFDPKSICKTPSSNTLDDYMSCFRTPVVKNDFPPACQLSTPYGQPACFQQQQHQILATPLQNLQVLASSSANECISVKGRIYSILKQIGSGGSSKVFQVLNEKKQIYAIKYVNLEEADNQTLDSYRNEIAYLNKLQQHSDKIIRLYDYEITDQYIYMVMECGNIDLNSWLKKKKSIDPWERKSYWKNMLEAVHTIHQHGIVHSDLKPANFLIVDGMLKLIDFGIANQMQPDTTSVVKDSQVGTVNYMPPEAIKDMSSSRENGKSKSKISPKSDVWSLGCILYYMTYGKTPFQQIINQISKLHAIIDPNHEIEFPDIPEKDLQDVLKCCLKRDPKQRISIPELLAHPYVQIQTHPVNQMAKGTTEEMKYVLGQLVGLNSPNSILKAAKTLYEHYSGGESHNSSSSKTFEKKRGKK

[20] = target: Dual specificity protein kinase CLK2 (Homo sapiens) (UniProt P49760); experiment: Inhibition of human CLK2 (138 to 499 residues) assessed as enzyme activity at 1 uM using 33P ATP by radioactive filter binding assay; set-up: scale not given: the % may be the effect or the level left
[21] = target: Ephrin type-B receptor 4 (Homo sapiens) (UniProt P54760); experiment: Inhibition of human EPHB4 (561 to 987 residues) assessed as enzyme activity at 1 uM using 33P ATP by radioactive filter binding assay; set-up: scale not given: the % may be the effect or the level left

Ratio IC50 [1]: 30
SMILES: CCCCc1cc(-c2c[nH]c3ncc(-c4cnn(C5CCNCC5)c4)cc23)nc(N)n1

inhibition [2]: 77%
SMILES: CCc1cc(-c2c[nH]c3ncc(-c4cnn(C5CCNCC5)c4)cc23)nc(N)n1

Activity [3]: -15%
Activity [4]: -13%
Activity [5]: -30%
Activity [6]: -13%
Activity [7]: 1%
Activity [8]: -20%
Activity [10]: -5%
Activity [11]: -1%
Activity [12]: -35%
Activity [13]: -83%
Activity [14]: -18%
Activity [15]: 15%
Activity [16]: -4%
Activity [17]: 35%
IC50 [18]: 5.9 µM
Activity [19]: -57%
Activity [20]: -98%
Activity [21]: 4%
SMILES: Nc1nccc(-c2c[nH]c3ncccc23)n1 [MERIOLIN 1]
Activity [9]: -28%
